# Patent publication US9914730B2, “Azaquinazoline inhibitors of Atypical protein Kinase C” (Ignyta, Inc., priority 2012, dated 2018)
# Target: T1, full-length human PKCι (Homo sapiens, UniProt P41743)
# T1 construct: Recombinant, full-length human PKCι expressed in Sf21 insect cells is also commercially available; purchased; host or cells: Sf21 insect cells
# T1 sequence (P41743 1-596): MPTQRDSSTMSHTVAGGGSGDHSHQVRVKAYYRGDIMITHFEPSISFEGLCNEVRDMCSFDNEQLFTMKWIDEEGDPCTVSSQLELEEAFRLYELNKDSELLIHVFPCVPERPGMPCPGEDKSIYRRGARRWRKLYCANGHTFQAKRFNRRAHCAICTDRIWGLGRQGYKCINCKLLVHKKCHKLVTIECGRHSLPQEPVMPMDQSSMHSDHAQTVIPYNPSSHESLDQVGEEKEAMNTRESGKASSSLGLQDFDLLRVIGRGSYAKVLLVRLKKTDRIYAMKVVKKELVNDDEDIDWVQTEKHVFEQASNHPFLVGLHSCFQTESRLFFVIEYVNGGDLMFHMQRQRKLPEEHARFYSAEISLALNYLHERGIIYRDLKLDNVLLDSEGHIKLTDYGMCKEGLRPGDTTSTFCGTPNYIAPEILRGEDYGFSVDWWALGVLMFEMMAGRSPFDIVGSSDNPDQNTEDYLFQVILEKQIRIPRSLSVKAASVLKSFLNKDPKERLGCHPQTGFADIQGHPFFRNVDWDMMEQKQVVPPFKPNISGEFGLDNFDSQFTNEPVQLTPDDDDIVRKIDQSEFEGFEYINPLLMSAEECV
# Test: PKCι IC50 IMAP assay, full-length PKCι at 150 μM ATP
# Assay type: biochemical
# Conditions: read-out: IC50 in IMAP assay against full length PKCi at 150 μM ATP
# In short: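 Dose-response IC50 values come from IMAP fluorescence polarisation after 60 min room-temperature turnover of 100 nM FAM peptide by ~15 pM insect-cell-expressed full-length PKCι at 150 μM ATP (5× KM^APP), normalised to no-compound and no-enzyme controls.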
row,IC50 [µM],Structure (SMILES)
1,< 0.1,"Cc1cccc(Nc2cc(-c3nc(N4CCNCC4)c4c(C5CC5)cncc4n3)ccn2)c1C [Example 540, [4-(5-Cyclopropyl-4-piperazin-1-yl-pyrido[3,4-d]pyrimidin-2-yl)-pyridin-2-yl]-(2,3-dimethyl-phenyl)-amine]"
2,< 0.1,"Cc1cccc(C)c1Nc1cc(-c2nc(N3CCNCC3)c3c(C4CC4)cncc3n2)ccn1 [Example 541, [4-(5-Cyclopropyl-4-piperazin-1-yl-pyrido[3,4-d]pyrimidin-2-yl)-pyridin-2-yl]-(2,6-dimethyl-phenyl)-amine]"
3,0.1 to 1,"Clc1cccc(Nc2cc(-c3nc(N4CCNCC4)c4c(C5CC5)cncc4n3)ccn2)c1Cl [Example 542, [4-(5-Cyclopropyl-4-piperazin-1-yl-pyrido[3,4-d]pyrimidin-2-yl)-pyridin-2-yl]-(2,3-dichloro-phenyl)-amine]"
4,< 0.1,"Cc1ncccc1Nc1cc(-c2nc(N3CCNCC3)c3c(C4CC4)cncc3n2)ccn1 [Example 544, [4-(5-Cyclopropyl-4-piperazin-1-yl-pyrido[3,4-d]pyrimidin-2-yl)-pyridin-2-yl]-(2-methyl-pyridin-3-yl)-amine]"
5,< 0.1,"c1cnnc(Nc2cc(-c3nc(N4CCNCC4)c4c(C5CC5)cncc4n3)ccn2)c1 [Example 545, [4-(5-Cyclopropyl-4-piperazin-1-yl-pyrido[3,4-d]pyrimidin-2-yl)-pyridin-2-yl]-pyridazin-3-yl-amine]"
6,< 0.1,"Cc1ccc(Nc2cc(-c3nc(N4CCNCC4)c4c(C5CC5)cncc4n3)ccn2)cn1 [Example 546, [4-(5-Cyclopropyl-4-piperazin-1-yl-pyrido[3,4-d]pyrimidin-2-yl)-pyridin-2-yl]-(6-methyl-pyridin-3-yl)-amine]"
7,< 0.1,"COc1ccc(Nc2cc(-c3nc(N4CCNCC4)c4c(C5CC5)cncc4n3)ccn2)cn1 [Example 547, [4-(5-Cyclopropyl-4-piperazin-1-yl-pyrido[3,4-d]pyrimidin-2-yl)-pyridin-2-yl]-(6-methoxy-pyridin-3-yl)-amine]"
8,< 0.1,"Fc1ccc(F)c(Nc2cc(-c3nc(N4CCNCC4)c4c(C5CC5)cncc4n3)ccn2)n1 [Example 548, [4-(5-Cyclopropyl-4-piperazin-1-yl-pyrido[3,4-d]pyrimidin-2-yl)-pyridin-2-yl]-(3,6-difluoro-pyridin-2-yl)-amine]"
9,< 0.1,"CP(C)(=O)c1ccc(Nc2cc(-c3nc(N4CCNCC4)c4c(C5CC5)cncc4n3)ccn2)cc1 [Example 549, [4-(5-Cyclopropyl-4-piperazin-1-yl-pyrido[3,4-d]pyrimidin-2-yl)-pyridin-2-yl]-[4-(dimethyl-phosphinoyl)-phenyl]-amine]"
10,< 0.1,"CCP(=O)(CC)c1ccc(Nc2cc(-c3nc(N4CCNCC4)c4c(C5CC5)cncc4n3)ccn2)cc1 [Example 550, [4-(5-Cyclopropyl-4-piperazin-1-yl-pyrido[3,4-d]pyrimidin-2-yl)-pyridin-2-yl]-[4-(diethyl-phosphinoyl)-phenyl]-amine]"
11,< 0.1,"CN(C)c1ccc(Nc2cc(-c3nc(N4CCNCC4)c4c(C5CC5)cncc4n3)ccn2)cn1 [Example 551, N^5-[4-(5-Cyclopropyl-4-piperazin-1-yl-pyrido[3,4-d]pyrimidin-2-yl)-pyridin-2-yl]-N^2,N^2-dimethyl-pyridine-2,5-diamine]"
12,< 0.1,"FC[C@H]1CN(c2nc(-c3ccnc(Nc4ccccc4)c3)nc3cncc(C4CC4)c23)CCN1 [Example 552, {4-[5-Cyclopropyl-4-((R)-3-fluoromethyl-piperazin-1-yl)-pyrido[3,4-d]pyrimidin-2-yl]-pyridin-2-yl}-phenyl-amine]"
13,< 0.1,"COc1ccc(C)c(Nc2cc(-c3nc(N4CCNCC4)c4c(C5CC5)cncc4n3)ccn2)c1 [Example 553, [4-(5-Cyclopropyl-4-piperazin-1-yl-pyrido[3,4-d]pyrimidin-2-yl)-pyridin-2-yl]-{5-methoxy-2-methyl-phenyl)-amine]"
14,0.1 to 1,"Cc1ccc(C(F)(F)F)cc1Nc1cc(-c2nc(N3CCNCC3)c3c(C4CC4)cncc3n2)ccn1 [Example 554, [4-(5-Cyclopropyl-4-piperazin-1-yl-pyrido[3,4-d]pyrimidin-2-yl)-pyridin-2-yl]-(2-methyl-5-trifluoromethyl-phenyl)-amine]"
15,0.1 to 1,"Fc1ccc(OC(F)(F)F)cc1Nc1cc(-c2nc(N3CCNCC3)c3c(C4CC4)cncc3n2)ccn1 [Example 555, [4-(5-Cyclopropyl-4-piperazin-1-yl-pyrido[3,4-d]pyrimidin-2-yl)-pyridin-2-yl]-(2-fluoro-5-trifluoromethoxy-phenyl)-amine]"
16,< 0.1,"CS(=O)(=O)c1ccc(F)c(Nc2cc(-c3nc(N4CCNCC4)c4c(C5CC5)cncc4n3)ccn2)c1 [Example 556, [4-(5-Cyclopropyl-4-piperazin-1-yl-pyrido[3,4-d]pyrimidin-2-yl)-pyridin-2-yl]-(2-fluoro-5-methanesulfonyl-phenyl)-amine]"
17,< 0.1,"Cc1ccc(F)c(Nc2cc(-c3nc(N4CCNCC4)c4c(C5CC5)cncc4n3)ccn2)c1F [Example 557, [4-(5-Cyclopropyl-4-piperazin-1-yl-pyrido[3,4-d]pyrimidin-2-yl)-pyridin-2-yl]-(2,6-difluoro-3-methyl-phenyl)-amine]"
18,0.1 to 1,"Cc1ccc(C(C)C)cc1Nc1cc(-c2nc(N3CCNCC3)c3c(C4CC4)cncc3n2)ccn1 [Example 558, [4-(5-Cyclopropyl-4-piperazin-1-yl-pyrido[3,4-d]pyrimidin-2-yl)-pyridin-2-yl]-(5-isopropyl-2-methyl-phenyl)-amine]"
19,< 0.1,"[2H]c1c([2H])c([2H])c(Nc2cc(-c3nc(N4CCNCC4)c4c(C5CC5)cncc4n3)ccn2)c([2H])c1[2H] [Example 559, [4-(5-Cyclopropyl-4-piperazin-1-yl-pyrido[3,4-d]pyrimidin-2-yl)-pyridin-2-yl]-pentdeuterio-phenyl-amine]"
20,0.1 to 1,"CC(O)c1ccccc1Nc1cc(-c2nc(N3CCNCC3)c3c(C4CC4)cncc3n2)ccn1 (centres unmarked) [Example 560, 1-{2-[4-(5-Cyclopropyl-4-piperazin-1-yl-pyrido[3,4-d]pyrimidin-2-yl)-pyridin-2-ylamino]-phenyl}-ethanol]"
21,< 0.1,"N[C@H]1CCC[C@H]1C(=O)Nc1cc(-c2nc(N3CCNCC3)c3c(C4CC4)cncc3n2)ccn1 [Example 561, (1R,2S)-2-Amino-cyclopentane-carboxylic acid [4-(5-cyclopropyl-4-piperazin-1-yl-pyrido[3,4-d]pyrimidin-2-yl)-pyridin-2-yl]-amide]"
22,0.1 to 1,"OC1(C2CN(c3nc(-c4ccnc(Cl)c4)nc4cncc(C5CC5)c34)CCN2)CC1 (centres unmarked) [Example 562, 1-{4-[2-(2-Chloro-pyridin-4-yl)-5-cyclopropyl-pyrido[3,4-d]pyrimidin-4-yl]-piperazin-2-yl}-cyclopropanol]"
23,< 0.1,"c1cc(-c2nc(N3CCNCC3)c3c(C4CC4)cncc3n2)cc(Nc2ccc3ccnn3c2)n1 [Example 563, [4-(5-Cyclopropyl-4-piperazin-1-yl-pyrido[3,4-d]pyrimidin-2-yl)-pyridin-2-yl]-pyrazolo[1,5-a]pyridin-6-yl-amine]"
24,< 0.1,"c1cc(-c2nc(N3CCNCC3)c3c(C4CC4)cncc3n2)cc(Nc2ccn3nccc3c2)n1 [Example 564, [4-(5-Cyclopropyl-4-piperazin-1-yl-pyrido[3,4-d]pyrimidin-2-yl)-pyridin-2-yl]-pyrazolo[1,5-a]pyridin-5-yl-amine]"
25,< 0.1,"FC(F)(F)c1cnnc(Nc2cc(-c3nc(N4CCNCC4)c4c(C5CC5)cncc4n3)ccn2)c1 [Example 565, [4-(5-Cyclopropyl-4-piperazin-1-yl-pyrido[3,4-d]pyrimidin-2-yl)-pyridin-2-yl]-(5-trifluoromethyl-pyridazin-3-yl)-amine]"
26,< 0.1,"COc1ccc(F)c(Nc2cc(-c3nc(N4CCNCC4)c4c(C5CC5)cncc4n3)ccn2)c1F [Example 566, [4-(5-Cyclopropyl-4-piperazin-1-yl-pyrido[3,4-d]pyrimidin-2-yl)-pyridin-2-yl]-(2,6-difluoro-3-methoxy-phenyl)-amine]"
27,< 0.1,"CCOc1ccc(F)c(Nc2cc(-c3nc(N4CCNCC4)c4c(C5CC5)cncc4n3)ccn2)c1F [Example 567, [4-(5-Cyclopropyl-4-piperazin-1-yl-pyrido[3,4-d]pyrimidin-2-yl)-pyridin-2-yl]-(3-ethoxy-2,6-difluoro-phenyl)-amine]"
28,< 0.1,"Cc1cccc(Nc2cc(-c3nc(N4CCNCC4)c4c(C5CC5)cncc4n3)ccn2)c1Cl [Example 568, (2-Chloro-3-methyl-phenyl)-[4-(5-cyclopropyl-4-piperazin-1-yl-pyrido[3,4-d]pyrimidin-2-yl)-pyridin-2-yl]-amine]"
29,< 0.1,"C[C@H]1CN(c2nc(-c3ccnc(Nc4ccccc4)c3)nc3cncc(C4CC4)c23)CCN1 [Example 569, {4-[5-Cyclopropyl-4-((S)-3-methyl-piperazin-1-yl)-pyrido[3,4-d]pyrimidin-2-yl]-pyridin-2-yl}-phenyl-amine]"
